Experimental findings from PMC7422936 (European journal of medicinal chemistry, 2020) are described below.

The term IC50 denotes the midpoint of a concentration-inhibition curve.

One test deals with CXCR4 (Homo sapiens, UniProt P61073). The experiment in a line: In vitro binding assay.
For test [1], the system named is carrageenan-induced paw edema. The experiment in a line: Carrageenan-induced mouse paw edema model. The class given is in vivo. For orientation: Carrageenan injected into the paw causes an acute inflammation.

“And” between values parts separate entries of the source, which are not always exact repeats. Identical values can stand only once. Like-named read-outs stand apart in the source and are kept apart here.

CXCR4, sequence (P61073 whole entry): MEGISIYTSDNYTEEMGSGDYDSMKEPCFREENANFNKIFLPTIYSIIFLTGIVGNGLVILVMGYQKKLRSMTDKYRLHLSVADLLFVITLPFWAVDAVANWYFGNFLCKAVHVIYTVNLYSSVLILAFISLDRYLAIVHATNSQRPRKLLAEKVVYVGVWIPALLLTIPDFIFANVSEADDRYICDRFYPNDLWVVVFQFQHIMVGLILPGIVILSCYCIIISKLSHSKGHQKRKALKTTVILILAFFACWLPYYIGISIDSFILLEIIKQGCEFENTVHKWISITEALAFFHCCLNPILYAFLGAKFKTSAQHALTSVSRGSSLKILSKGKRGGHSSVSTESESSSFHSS

`NC(C(=O)NC1CCN(C(=O)CCn2ccc3ccncc32)CC1)c1ccccc1` (centres unmarked) [ZINC72372983]: at CXCR4 (read-out: Binding Affinity (EC), EC = concentration at which the compound blocks > 50% of rhodamine Red X-TN14003, MDA-MB-231 cells, tested at 1, 10, 100, 1000 nM), the EC50 stood at 100 nM.

For the molecule `N=C(N)NCCC[C@H](N)C(=O)NC1CCN(C(=O)CCn2ccc3ccncc32)CC1` [Z7R], the “Reduction of edema (paw) weight” value in test [1] (10 mg/kg i.p. once daily, 74 h after carrageenan, n = 5, versus untreated mice) is 50% and ~ 50%. Further, the “Histology / immunohistochemistry of paw tissue” value in test [1] (10 mg/kg i.p., H&E and anti-CXCR4 staining) is “observable decrease in the number of inflammatory cells”. In addition, on CXCR4, the EC50 stood at 1 nM and the IC50 worked out at 1.25 nM.
